Assay results reported in patent US5235045A, “Non-azo naphthalimide dyes” (priority 1992, dated 1993).

Tests used:
cytochrome c = assay: Effect of irradiation on membrane-bound protein function: oxidation of vesicle-bound cytochrome c by CO(phen)3^3+; assay type: biochemical; conditions: 1×10^-7 M dye, irradiated; pH 7.5, 20° C.; without dye 25±1
Protocol: Cytochrome C, a mitochondrial protein which is peripherally associated with membranes was studied as a model for the effect of photomodification of the membrane lipids on protein function. At pH 7.5 and 20° C., the rate of oxidation of vesicle-bound cytochrome c (7×10^-6 M) by CO(phen)3^3 + was 25±1 s^-1. Upon addition of Compound VII (1×10^-7 M) to the vesicles containing reduced cytochrome c, and subsequent irradiation as described above, the rate constant for oxidation of the bound cytochrome c under the same conditions was reduced to 2±1 s^-1.

BHV-1 antigen = assay: Surface antigen assays of BHV-1 on FBL cells; assay type: cell-based, Bovine Herpes Virus Type I (BHV-1)
Protocol: Surface Antigen Assays The BHV-1 virus prepared as above (20480 TCID50) was (i) held as control; (ii) treated with dye (concentrations from 7.5 to 250 ng/ml) in cell culture medium; or (iii) treated with Compound VII and light-treated in cell culture medium. All virus was plated in 96-well flat bottom plates for 24 hours in 5x replicates on FBL cells. At that time the wells were examined for CPE, scored, and 2x wells were fixed in acetone and paraformaldehyde for examination of intracellular and surface BHV-1 antigen, respectively. The cells were treated with 50 μl of an anti-BHV-1 monoclonal antibody (gift of Dr. J. Collins, Diagnostic Laboratory, Colorado State University, School of Veterinary Medicine) used as a common diagnostic reagent, for 30 minutes at room temperature. The cells were further stained with either FITC-labeled anti-mouse or biotinylated anti-mouse and avidin rPE. The samples were placed on slides and read by fluorescent microscopy using a 495 nm excitor filter and 525 long pass emission filter on a Leitz epifluorescent microscope.

H9 cells = assay: Uptake into living H9 cells; assay type: cell-based, human; conditions: for rate constant for uptake: 10% fetal calf serum
Protocol: For measurement, the pellet was diluted in 3 ml PBS+0.1% CTAB immediately prior to fluorescence measurement. Fluorescence measurements were made using an excitation wavelength of 451 nm, and an emission wavelength of 526 nm.
The protocol used is as above in (1), modified as below for those experiments in the presence of colchicine: Colchicine (1 mg/ml) was added to H9 cells at 5×10^.ident. cells/ml, and incubated for 1 hour. The cells were centrifuged, fresh medium was added, and 1b (25 μM) was added. Samples were taken at 0, 2, and 4 hours.

[1] = test system: Human High Density Lipoprotein (HDL), Apoprotein I; assay: Protein crosslinking with DiEd6Br: HDL; assay type: biochemical; conditions: 25.0 μM, 400 J/cm^2
[2] = test system: Vesicular stomatitis Virus (Ogden strain) (VSV), G-protein; assay type: biochemical; conditions: 10.0 μM, 460 J/cm^2
[3] = test system: Human serum Albumen (HSA); assay: Protein crosslinking with DiEd6Br: human serum albumen; assay type: biochemical; conditions: 30.0 μM, 791 J/cm^2
[4] = Tissue bonding of swine dura mater with DiEd6Br and light
From the text: (§1) Bonding together of the overlapping surfaces of two strips of swine dura mater and of two thin slices of beef muscle with application of DiEd6Br in Cremophor EL as a carrier and irradiation with 420 # 5 nm light filtered from a xenon arc lamp were studied.
Strips approximately 3×0.5 cm in dimension were cut from freshly harvested swine cranial dura mater, washed with 70% ethanol/water and blotted to dryness with standard chemical filter paper. External faces of each member of two pairs of strips were coated with a stock solution of Cremophor EL saturated at room temperature with DiEd6Br (approximately 2.5 millimolar), overlapped 1 cm with long axes parallel, and clamped between two Pyrex glass slides with edges of the slide-tissue-slide sandwich sealed with Parafilm. One sample was irradiated with 420 # 5 nm light of 25 mW/cm^2 irradiance for […]. at room temperature to give a total light fluence of approximately 1800 J/cm^2. The companion sample was wrapped in aluminum foil for light shielding and placed alongside the irradiated sample for the duration of the experiment.
Following their respective irradiation or being held in the dark in similar temperature ambience, one end of a strip of each sample was clamped and from the other a Styrofoam container was hung by a clamp and fine suspension wires (weight of clamp plus container plus wires=33.3 gm). Weights (10 gm each) were added gently in a sequential fashion to give a total weight of 296.3 gm upon which the strip is separated at their interface within the overlapped region of the irradiated sample. Strips of the un-irradiated sample separated immediately at their interface under the 33.3 gm loading of the "weighing" container. […] Elongation was approximately 50% at shearing of the interface.

[5] = Tissue bonding of beef muscle strips with DiEd6Br and light; conditions: 0.1 millimolar
From the text: as §1
Thin strips approximately 10 cm long, 1 cm wide, and 0.05-0.1 cm thick were sliced from beef steak obtained from a local meat market. Surfaces of the strips of two sample pairs were coated with a stock solution of DiEd6Br in Cremophor EL (0.1 millimolar concentration) and placed together to give approximately 2 cm overlap. One overlapping strip sample was irradiated for 24 hours with water-filtered (IR spectrum absorber) light from a 150 w xenon arc lamp. Beam diameter incident on the sample was approximately 3 cm. The other sample was wrapped in aluminum foil, placed alongside the irradiated sample, and served as dark control.

[6] = photochemically attenuated virus
[7] = virus and dye, dark control, 7.5 to 250 ng/ml
[8] = 2 G-protein units or 1 G-protein + 2 M-protein units

SMILES: CCCCCCNc1c(Br)cc2c3c(cccc13)C(=O)N(CCCCCC)C2=O [Compound VII, 3-bromo-4-(hexyl)amino-N-hexyl-1,8-naphthalimide]
- rate constant for oxidation of bound cytochrome c (cytochrome c): 2 ± 1 s⁻¹
- internal viral antigen (BHV-1 antigen; [6]): internal antigen was observed at all concentrations of Compound VII which showed CPE
- surface viral antigen (BHV-1 antigen; [6]): Surface antigen was observed at all concentrations
- internal viral antigen (BHV-1 antigen; [7]): Internal antigen was observed and correlated with CPE levels
- surface viral antigen (BHV-1 antigen; [7]): Much surface viral antigen was detected at all dye concentrations

SMILES: CCCCCCNc1ccc2c3c(cccc13)C(=O)N(CCCCCC)C2=O [Compound 1b, 4-(hexyl)amino-N-hexyl-1,8-naphthalimide]
- rate constant for uptake (H9 cells; 1 μM, 4° C.): 3.5 ± 0.6 × 10^-4 s^-1
- rate constant for uptake (H9 cells; 1 μM, 37° C.): 3.6 ± 1.7 × 10^-4 s^-1
- rate constant for uptake (H9 cells; 5 μM, 4° C.): 2.7 ± 1.0 × 10^-4 s^-1
- rate constant for uptake (H9 cells; 5 μM, 37° C.): 3.3 ± 0.7 × 10^-4 s^-1
- rate constant for uptake (H9 cells; 25 μM, 4° C.): 2.3 ± 0.9 × 10^-4 s^-1
- rate constant for uptake (H9 cells; 25 μM, 37° C.): 2.5 ± 0.3 × 10^-4 s^-1
- total uptake in presence of colchicine (H9 cells; 25 μM, colchicine pre-incubated 1 hour): decreased
- slope of log/log plot of fluorescence vs. time, presence and absence of colchicine (H9 cells; after 2 hours, 25 μM): essentially the same slope

SMILES: CCCCCCN1C(=O)c2cccc3c(NCCNC(=O)CCCCC(=O)NCCNc4c(Br)cc5c6c(cccc46)C(=O)N(CCCCCC)C5=O)c(Br)cc(c23)C1=O [Compound XLIV]
- Inferred Crosslinked Species ([1]; Cremophor EL): 8 Apopro-
- Inferred Crosslinked Species, Gel mw ([1]; 8 Apoprotein I units): 141 kD
- heavier bands [2]: many ill separated heavier bands merging together near
- Inferred Crosslinked Species [2, 8]: 2 G-protein
- Inferred Crosslinked Species, Gel mw [2, 8]: 130 kD
- heavier bands [3]: many ill separated heavier bands merging together near
- Inferred Crosslinked Species ([3]; first species): 2 HSA
- Inferred Crosslinked Species ([3]; second species): 3 HSA
- Inferred Crosslinked Species ([3]; third species): 3 HSA
- Inferred Crosslinked Species, Gel mw ([3]; 2 HSA units): 120 kD
- Inferred Crosslinked Species, Gel mw ([3]; 3 HSA units (so in the source), third species): 240 kD
- Inferred Crosslinked Species, Gel mw ([3]; 3 HSA units, second species): 180 kD
- deformation after separation ([4]; irradiated): no plastic deformation
- elongation at shearing of the interface ([4]; irradiated): approximately 50%
- total weight at separation of strips ([4]; irradiated, approximately 1800 J/cm^2): 296.3 gm
- loading at which strips separated immediately ([4]; un-irradiated): ≤ 33.3 gm
- bonding of strips ([5]; dark control): separated under their own weight
- bonding of strips ([5]; irradiated 24 hours): discernable tactile finger pressure was felt when two hands were used to pull the irradiated strip apart, indicating bonding of the strip surface
